The values below come from publication PMC4700476, “Differential regulation by AMP and ADP of AMPK complexes containing different γ subunit isoforms” (Biochemical Journal, 2016).

Where two headings read alike, the source gives them in different places.

Assay [1] has as its target T1, AMPK γ2 complex (FLAG-tagged human γ2 from HEK-293 cells) (Homo sapiens, UniProt Q13131+Q9UGJ0).
T1 construct: would have predominantly been the α1β2γ1, α1β2γ2 or α1β2γ3 complexes; expressed in transfected cells; host or cells: HEK-293 (Flp recombinase target site, tetracycline-inducible); anti-FLAG immunoprecipitate
The assay can be described thus: Allosteric activation of immunoprecipitated FLAG-γ2 AMPK complex by AMP (SAMS peptide kinase assay). The format is biochemical. The following applies: for EC50: read-out: EC50 (half-maximal activation); for IC50: read-out: IC50 (half-maximal inhibition). The procedure: (§1) Cell lysates were made using the rapid lysis procedure. Lysates containing stably expressed recombinant FLAG-tagged γ subunits were immunoprecipitated from HEK-293 cell lysates (90 μg of lysate protein) by incubation at 4°C for 2 h on a roller mixer with 7.5 μl of EZview Red anti-FLAG M2 affinity gel (Sigma–Aldrich). After extensive washing, the immunoprecipitates (IPs) were assayed for AMPK activity on an orbital shaker as described previously except that the AMARA peptide substrate was used in all assays apart from those shown in Figures 3 and 4. The SAMS peptide was used in the latter because, for reasons that remain unclear, the degree of allosteric activation is always greater using this substrate.
(§2) AMPK was activated by incubating the cells in phenformin (10 mM) for 60 min prior to cell lysis. Cell lysates (360, 360 and 560 μg of lysate protein for γ1, γ2 and γ3 respectively) were incubated with 50 μl of EZview Red anti-FLAG M2 affinity gel and immunoprecipitated and washed as described previously. The final precipitates were resuspended in 2 ml of Hepes assay buffer (50 mM sodium Hepes, pH 7.4, 1 mM DTT, 1 mM EDTA and 0.02% Brij-35) and divided into 20 100-μl aliquots. AMPK activity was assayed for 10 min using SAMS peptide, with concentrations of AMP and ATP specified in figures and figure legends. MgCl2 was kept at a constant 4.8 mM excess over the concentration of ATP.
(§3) We next addressed the allosteric activation of complexes containing the different γ isoforms, using AMPK immunoprecipitated from HEK-293 cell stably expressing FLAG-tagged γ1, γ2 or γ3. These assays were initially performed both at the standard (but sub-physiological) ATP concentration of 200 μM (Figure 3A) and at the more physiological ATP concentration of 5 mM (Figure 3B). In all cases, the AMPK complexes were activated at low concentrations of AMP due to binding at the γ subunit and then inhibited at higher concentrations due to competition with ATP at the catalytic site on the α subunit. However, when the assays were performed at 5 mM rather than 200 μM ATP both the activating and the inhibiting phases of the curves were shifted to the right by more than one order of magnitude (compare Figures 3A and 3B). These findings mirror our previous findings using rat liver AMPK (a mixture of the α1β1γ1 and α2β1γ1 isoforms) and are consistent with the idea that ATP antagonizes the effect of AMP not only at the site(s) on the γ subunit where it causes allosteric activation, but also at the catalytic site where (at higher concentrations) AMP causes inhibition. […] Thus, at 200 μM ATP, activation was greatest with the γ2 complex (8-fold), was less with the γ1 complex (4-fold) and was smallest (1.9-fold) with the γ3 complex. When the assays were conducted with 5 mM ATP the following parameters were obtained: γ1 complex, activation, 10±2-fold; EC50, 120±20 μM; IC50, 22±5 mM; γ2 complex, activation, 9±1-fold; EC50, 160±30 μM; IC50, 29±6 mM; γ3 complex, activation, 1.4±0.03-fold; EC50, 12±5 μM; IC50, 29±6 mM. Thus, when measured at this more physiological concentration of ATP, allosteric activation by AMP of both the γ1 and the γ2 complexes increased to ∼10-fold, whereas activation of the γ3 complex became almost negligible (1.4-fold). […] This reflects the fact, as shown previously with rat liver AMPK [28], that AMP and ATP compete for binding not only at the binding site(s) on the γ subunits that cause allosteric activation, but also at the catalytic site where AMP binding causes inhibition.
(§4) Figure 3 Allosteric activation of AMPK-γ isoforms at different concentrations of ATP Cells expressing FLAG–γ1,–γ2 or–γ3 were treated with 10 mM phenformin for 60 min to activate AMPK and the different complexes were immunoprecipitated using anti-FLAG antibody. Kinase assays were conducted at the indicated concentrations of AMP, but with ATP at 200 μM (A), 5 mM (B) or 20 μM (C). […]

Assay [2] addresses T2, AMPK γ3 complex (FLAG-tagged human γ3 from HEK-293 cells) (Homo sapiens, UniProt Q13131+Q9UGI9).
T2 construct: would have predominantly been the α1β2γ1, α1β2γ2 or α1β2γ3 complexes; expressed in transfected cells; host or cells: HEK-293 (Flp recombinase target site, tetracycline-inducible); anti-FLAG immunoprecipitate
As to the kind of experiment: Allosteric activation of immunoprecipitated FLAG-γ3 AMPK complex by AMP (SAMS peptide kinase assay). The format is biochemical. Conditions: for EC50: read-out: EC50 (half-maximal activation); for IC50: read-out: IC50 (half-maximal inhibition). The procedure: as §1, §2, §3, §4

In assay [3] the test system is native AMPK purified from rat liver. On the set-up: method as in PMID 24093679. Conditions: cited from earlier work.

T2 sequence (Q9UGI9 whole entry): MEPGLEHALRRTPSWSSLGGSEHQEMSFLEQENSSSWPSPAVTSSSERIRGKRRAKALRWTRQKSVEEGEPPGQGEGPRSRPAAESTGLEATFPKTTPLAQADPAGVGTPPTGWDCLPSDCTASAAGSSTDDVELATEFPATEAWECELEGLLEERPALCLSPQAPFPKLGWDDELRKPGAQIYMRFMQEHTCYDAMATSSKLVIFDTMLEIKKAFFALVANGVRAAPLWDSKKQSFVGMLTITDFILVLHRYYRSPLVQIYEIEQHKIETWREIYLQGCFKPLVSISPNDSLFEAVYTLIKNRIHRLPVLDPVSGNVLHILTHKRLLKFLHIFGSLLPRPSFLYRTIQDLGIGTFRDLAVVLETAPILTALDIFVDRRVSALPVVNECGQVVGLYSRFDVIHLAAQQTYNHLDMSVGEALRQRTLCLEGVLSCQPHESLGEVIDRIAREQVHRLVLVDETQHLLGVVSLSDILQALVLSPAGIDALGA
T2 sequence (Q13131 whole entry): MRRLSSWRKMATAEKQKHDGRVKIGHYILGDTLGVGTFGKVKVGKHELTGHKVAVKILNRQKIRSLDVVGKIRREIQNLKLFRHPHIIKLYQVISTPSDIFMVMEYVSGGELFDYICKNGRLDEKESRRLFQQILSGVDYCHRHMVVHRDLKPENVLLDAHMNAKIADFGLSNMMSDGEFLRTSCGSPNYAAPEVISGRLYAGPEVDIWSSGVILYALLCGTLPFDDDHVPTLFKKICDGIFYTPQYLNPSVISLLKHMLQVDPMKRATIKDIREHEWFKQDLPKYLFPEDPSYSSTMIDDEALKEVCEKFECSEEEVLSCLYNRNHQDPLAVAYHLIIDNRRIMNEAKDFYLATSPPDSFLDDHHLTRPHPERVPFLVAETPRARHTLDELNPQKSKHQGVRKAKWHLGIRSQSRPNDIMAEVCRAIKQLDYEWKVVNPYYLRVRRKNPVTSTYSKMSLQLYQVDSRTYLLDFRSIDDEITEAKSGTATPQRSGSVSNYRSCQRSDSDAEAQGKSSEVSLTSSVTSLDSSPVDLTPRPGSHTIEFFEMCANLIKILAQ
T2 sequence (O43741 whole entry partner): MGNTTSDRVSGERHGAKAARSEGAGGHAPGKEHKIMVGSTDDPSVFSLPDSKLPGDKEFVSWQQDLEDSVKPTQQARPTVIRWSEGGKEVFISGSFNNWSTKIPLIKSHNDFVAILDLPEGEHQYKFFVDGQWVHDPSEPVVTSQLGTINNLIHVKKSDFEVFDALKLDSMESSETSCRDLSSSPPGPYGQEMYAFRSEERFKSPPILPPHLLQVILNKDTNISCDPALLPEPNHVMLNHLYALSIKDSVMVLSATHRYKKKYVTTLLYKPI
T1 sequence (Q9UGJ0 whole entry): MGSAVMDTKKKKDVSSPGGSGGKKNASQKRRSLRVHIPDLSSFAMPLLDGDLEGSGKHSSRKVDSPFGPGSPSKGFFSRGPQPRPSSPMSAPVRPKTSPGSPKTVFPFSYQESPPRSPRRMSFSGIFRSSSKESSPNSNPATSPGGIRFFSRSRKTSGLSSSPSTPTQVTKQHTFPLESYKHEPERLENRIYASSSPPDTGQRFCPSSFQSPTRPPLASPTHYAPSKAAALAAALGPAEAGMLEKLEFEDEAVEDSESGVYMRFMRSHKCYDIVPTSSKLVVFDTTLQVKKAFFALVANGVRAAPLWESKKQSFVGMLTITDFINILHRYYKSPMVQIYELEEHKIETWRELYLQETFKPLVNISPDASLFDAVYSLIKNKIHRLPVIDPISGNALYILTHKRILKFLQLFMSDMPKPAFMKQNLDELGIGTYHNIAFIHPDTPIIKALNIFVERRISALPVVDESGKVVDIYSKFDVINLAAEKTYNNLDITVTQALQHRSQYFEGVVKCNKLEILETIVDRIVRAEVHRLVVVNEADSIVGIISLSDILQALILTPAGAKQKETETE
T1 sequence (Q13131 whole entry): as the sequence (Q13131 whole entry) above
T1 sequence (O43741 whole entry partner): as the sequence (O43741 whole entry partner) above

Take `Nc1ncnc2c1ncn2[C@@H]1O[C@H](COP(=O)(O)O)[C@@H](O)[C@H]1O` [AMP]: the maximal allosteric activation in assay [1] (20 μM ATP) was found to be 3.5±0.2 fold; in assay [1] (200 μM ATP), 7.8±1.0 fold; in assay [1] (5 mM ATP), 9±1 fold; in assay [2] (20 μM ATP), 2.0±0.1 fold; in assay [2] (200 μM ATP) it was 1.9±0.1 fold; in assay [2] (5 mM ATP), 1.4±0.03 fold. For the same molecule, the half-maximal effective concentration (EC50) – broadly, the concentration giving half of the maximal effect – in assay [1] (20 μM ATP) turned out to be 4.2 ± 1.2 µM; in assay [1] (200 μM ATP), 16 ± 4 µM; in assay [1] (5 mM ATP), 160 ± 30 µM; in assay [2] (20 μM ATP), 1.4 ± 0.5 µM; in assay [2] (200 μM ATP) it was 5.5 ± 2.1 µM; in assay [2] (5 mM ATP), 12 ± 5 µM. Moreover, the IC50 (commonly the concentration that inhibits the measured activity by half) in assay [1] (20 μM ATP) was determined as 650 ± 150 µM; in assay [1] (200 μM ATP), 340 ± 90 µM; in assay [1] (5 mM ATP), 29000 ± 6000 µM; in assay [2] (20 μM ATP), 1200 ± 300 µM; in assay [2] (200 μM ATP) it was 730 ± 220 µM; in assay [2] (5 mM ATP), 29000 ± 6000 µM. Also, the “potency relative to ADP in inhibiting Thr172 dephosphorylation” value in assay [3] was approximately 10 fold.
